# Experimental data: ChEMBL document CHEMBL5724914, “Linking interpersonal differences in gut microbiota composition and drug biotransformation activity” (2024)
# What was measured:
# [1] = human gut metagenome, 24 h, 2 µM
# [2] = human gut metagenome, 24 h, 2 µM; remark: listed apart in the source
# [3] = (§1) The drug is tested on Z-016 corresponding to mouse gut metagenome with ENA study accession number: PRJEB37062 and ENA sample accession number: ERS12561815 for biotransformation under anaerobic condition. The drug concentrations were measured over 9 timepoints collected between 0 and 24 hours of incubation by liquid-chromatography-coupled mass spectrometry (LC–MS); details: 2 µM
# [4] = as §1, with “Z-018” for “Z-016”, “pig” for “mouse”, “ERS12561817” for “ERS12561815”; details: 2 µM
# [5] = human gut metagenome, 24 h, 2 µM; remark: listed apart in the source
# [6] = human gut metagenome, 24 h, 2 µM; remark: listed apart in the source
# [7] = as §1, with “WLS-350” for “Z-016”, “human” for “mouse”, “ERS12561789” for “ERS12561815”; details: 2 µM
# [8] = human gut metagenome, 24 h, 2 µM; remark: listed apart in the source
# [9] = as §1, with “Z-027” for “Z-016”, “to” for “to mouse gut”, “ERS12561826” for “ERS12561815”; details: 2 µM
# [10] = as §1, with “WLS-038” for “Z-016”, “human” for “mouse”, “ERS12561745” for “ERS12561815”; details: 2 µM
# [11] = as §1, with “WLS-007” for “Z-016”, “human” for “mouse”, “ERS12561742” for “ERS12561815”; details: 2 µM
# [12] = as §1, with “Z-023” for “Z-016”, “to” for “to mouse gut”, “ERS12561822” for “ERS12561815”; details: 2 µM
# [13] = as §1, with “Z-020” for “Z-016”, “rabbit” for “mouse”, “ERS12561819” for “ERS12561815”; details: 2 µM
# [14] = as §1, with “Z-010” for “Z-016”, “to” for “to mouse gut”, “ERS12561810” for “ERS12561815”; details: 2 µM
# [15] = as §1, with “Z-008” for “Z-016”, “to” for “to mouse gut”, “ERS12561808” for “ERS12561815”; details: 2 µM
# [16] = as §1, with “Z-021” for “Z-016”, “to” for “to mouse gut”, “ERS12561820” for “ERS12561815”; details: 2 µM
# [17] = as §1, with “WLS-170” for “Z-016”, “human” for “mouse”, “ERS12561762” for “ERS12561815”; details: 2 µM
# [18] = human gut metagenome, 24 h, 2 µM; remark: listed apart in the source
# [19] = as §1, with “Z-006” for “Z-016”, “ERS12561806” for “ERS12561815”; details: 2 µM
# [20] = human gut metagenome, 24 h, 2 µM; remark: listed apart in the source
# Further: call rule not given here.
Compound,Bacterial Biotransformation [1],Bacterial Biotransformation [2],Bacterial Biotransformation [3],Bacterial Biotransformation [4],Bacterial Biotransformation [5],Bacterial Biotransformation [6],Bacterial Biotransformation [7],Bacterial Biotransformation [8],Bacterial Biotransformation [9],Bacterial Biotransformation [10],Bacterial Biotransformation [11],Bacterial Biotransformation [12],Bacterial Biotransformation [13],Bacterial Biotransformation [14],Bacterial Biotransformation [15],Bacterial Biotransformation [16],Bacterial Biotransformation [17],Bacterial Biotransformation [18],Bacterial Biotransformation [19],Bacterial Biotransformation [20]
O=C(O)COCCN1CCN(C(c2ccccc2)c2ccc(Cl)cc2)CC1 (stereo not given) [CETIRIZINE],Compound metabolized,Compound metabolized,Compound metabolized,Compound NOT metabolized,Compound metabolized,Compound metabolized,Compound metabolized,Compound metabolized,Compound NOT metabolized,Compound metabolized,Compound metabolized,Compound metabolized,Compound NOT metabolized,Compound metabolized,Compound NOT metabolized,Compound metabolized,Compound metabolized,Compound metabolized,Compound NOT metabolized,Compound metabolized
CNS(=O)(=O)Cc1ccc2[nH]cc(CCN(C)C)c2c1.O=C(O)CCC(=O)O [SUMATRIPTAN SUCCINATE],Compound NOT metabolized,Compound NOT metabolized,Compound NOT metabolized,Compound NOT metabolized,Compound NOT metabolized,Compound metabolized,Compound NOT metabolized,Compound NOT metabolized,Compound NOT metabolized,Compound NOT metabolized,Compound NOT metabolized,Compound NOT metabolized,Compound NOT metabolized,Compound NOT metabolized,Compound NOT metabolized,Compound NOT metabolized,Compound NOT metabolized,Compound NOT metabolized,Compound NOT metabolized,Compound NOT metabolized
Cc1ccc(S(=O)(=O)NC(=O)NN2CC3CCCC3C2)cc1 (stereo not given) [GLICLAZIDE],Compound metabolized,Compound metabolized,Compound metabolized,Compound metabolized,Compound metabolized,Compound metabolized,Compound metabolized,Compound metabolized,Compound metabolized,Compound metabolized,Compound NOT metabolized,Compound metabolized,Compound metabolized,Compound metabolized,Compound NOT metabolized,Compound NOT metabolized,Compound metabolized,Compound NOT metabolized,Compound metabolized,Compound NOT metabolized
CCN(CC)CCOCCOC(=O)C1(c2ccccc2)CCCC1.O=C(O)CC(O)(CC(=O)O)C(=O)O [CARBETAPENTANE CITRATE],Compound NOT metabolized,Compound NOT metabolized,Compound metabolized,Compound metabolized,Compound metabolized,Compound metabolized,Compound NOT metabolized,Compound NOT metabolized,Compound NOT metabolized,Compound metabolized,Compound NOT metabolized,Compound NOT metabolized,Compound metabolized,Compound metabolized,Compound NOT metabolized,Compound metabolized,Compound metabolized,Compound NOT metabolized,Compound NOT metabolized,Compound metabolized
